biological target: T1, hFSP1 (Homo sapiens, UniProt Q9BRQ8); assay: Dose-response of screening hits, cell survival by Aquabluer in hFSP1 GPX4 KO cells; format: cell-based; conditions: FSP1 overexpressing cells lacking GPX4
T1 construct: expressed in transfected cells; host or cells: Gpx4 KO isogenic fibroblasts (Pfa1, mouse) overexpressing hFSP1
T1 sequence (Q9BRQ8 1-373): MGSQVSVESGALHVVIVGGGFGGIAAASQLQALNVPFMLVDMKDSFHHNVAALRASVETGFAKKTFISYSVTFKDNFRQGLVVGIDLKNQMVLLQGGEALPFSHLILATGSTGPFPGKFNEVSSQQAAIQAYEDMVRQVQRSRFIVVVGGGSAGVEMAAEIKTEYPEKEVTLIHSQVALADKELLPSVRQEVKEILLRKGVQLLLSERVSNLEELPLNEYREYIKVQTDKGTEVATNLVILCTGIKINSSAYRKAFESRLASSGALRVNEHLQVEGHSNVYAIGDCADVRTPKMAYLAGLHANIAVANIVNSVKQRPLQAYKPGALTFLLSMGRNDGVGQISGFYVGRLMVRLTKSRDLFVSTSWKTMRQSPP
Description: To identify new small molecule inhibitors that induce ferroptosis in FSP1 overexpressing cells lacking GPX4, hFSP1 GPX4 KO as well as FSP1 GPX4 wild type (WT) isogenic fibroblasts were screened using a subtractive high throughput screening (HTS) approach. As such, both cell lines were plated in parallel and screened against HMGU libraries at a fixed concentration of 10 μM. Cell survival was evaluated using the LIVE/DEAD assay Aquabluer. The percentage (%) of viable cells was determined for both wild type (WT) and knockout (KO) cell lines. Hits were considered as compounds that induce ferroptosis in KO but not in WT cells. Subsequently, positive hits were assayed in a dose-response manner to establish EC50 values of respective compounds (see Table 2).

`CCOc1ccc(CC(=O)Nc2ccc(-n3c(C)nc4ccccc4c3=O)cc2)cc1` [Compound 2] and `COc1ccc(CC(=O)Nc2ccc(-n3c(C)nc4ccccc4c3=O)cc2)cc1` [Compound 4] cannot be ordered by EC50: > 1000 nM for the first, > 1000 nM for the second.

Going from `COc1cc(C(=O)Nc2ccc(-n3c(C)nc4ccccc4c3=O)cc2)cc(OC)c1OC` [Compound 3] to `COc1cc(C(=O)Nc2cccc(-n3c(C)nc4ccccc4c3=O)c2)cc(OC)c1OC` [Compound 6], the EC50 falls from > 1000 nM to < 1000 nM. The second is the more potent here.

`COc1ccc(CC(=O)Nc2cccc(-n3c(C)nc4ccccc4c3=O)c2)cc1` [Compound 5] and `COc1ccc(CC(=O)Nc2ccc(-n3c(C)nc4ccccc4c3=O)cc2C)cc1` [Compound 25] cannot be ordered by EC50: > 1000 nM for the first, > 1000 nM for the second.

`COc1ccc(CC(=O)Nc2ccc(-n3c(C)nc4ccccc4c3=O)cc2)cc1Cl` [Compound 7] and `COc1ccc(CC(=O)Nc2ccc(-n3c(C)nc4ccccc4c3=O)cc2)c(Cl)c1` [Compound 31] cannot be ordered by EC50: < 1000 nM for the first, < 1000 nM for the second.

Going from `COc1cccc(CC(=O)Nc2ccc(-n3c(C)nc4ccccc4c3=O)cc2)c1` [Compound 8] to `Cc1cccc(CC(=O)Nc2ccc(-n3c(C)nc4ccccc4c3=O)cc2)c1` [Compound 15], the EC50 falls from > 1000 nM to < 1000 nM.

`COc1cc(CC(=O)Nc2ccc(-n3c(C)nc4ccccc4c3=O)cc2C)cc(OC)c1OC` [Compound 9] and `COc1ccc(CC(=O)Nc2ccc(-n3c(C)nc4ccccc4c3=O)cc2C)cc1Cl` [Compound 33] cannot be ordered by EC50: < 1000 nM for the first, < 1000 nM for the second.

`CCOc1cc(C(=O)Nc2ccc(-n3c(C)nc4ccccc4c3=O)cc2)cc(OCC)c1OCC` [Compound 10] and `COc1cc(CC(=O)Nc2ccc(-n3c(CF)nc4ccccc4c3=O)cc2)cc(OC)c1OC` [Compound 42] cannot be ordered by EC50: < 1000 nM for the first, < 1000 nM for the second.

`COc1ccc(CC(=O)Nc2ccc3nc(C)n(-c4ccc(F)cc4)c(=O)c3c2)cc1OC` [Compound 11] and `COc1cc(CC(=O)Nc2ccc(-n3c(C)nc4ccncc4c3=O)cc2)cc(OC)c1OC` [Compound 50] cannot be ordered by EC50: > 1000 nM for the first, > 1000 nM for the second.

First: CCOc1ccc(CC(=O)Nc2ccc(-n3c(C)nc4ccccc4c3=O)cc2C)cc1 [Compound 12]
Second: Cc1ccc(CC(=O)Nc2ccc(-n3c(C)nc4ccccc4c3=O)cc2C)cc1 [Compound 21]
The EC50 of the first is lower: < 1000 nM for the first, > 1000 nM for the second.

Compared with `Cc1ccc(CC(=O)Nc2ccc(-n3c(C)nc4ccccc4c3=O)cc2)cc1` [Compound 14], `Cc1nc2ccccc2c(=O)n1-c1ccc(NC(=O)Cc2ccc(F)cc2)cc1` [Compound 17] is higher in EC50: < 1000 nM for the first, > 1000 nM for the second. The first is the more potent here.

`Cc1ccccc1CC(=O)Nc1ccc(-n2c(C)nc3ccccc3c2=O)cc1` [Compound 16] and `Cc1nc2ccccc2c(=O)n1-c1ccc(NC(=O)Cc2ccccc2Cl)cc1` [Compound 20] cannot be ordered by EC50: > 1000 nM for the first, > 1000 nM for the second.

`Cc1nc2ccccc2c(=O)n1-c1ccc(NC(=O)Cc2ccc(Cl)cc2)cc1` [Compound 18] and `Cc1cc(-n2c(C)nc3ccccc3c2=O)ccc1NC(=O)Cc1ccc(Cl)cc1` [Compound 26] cannot be ordered by EC50: < 1000 nM for the first, < 1000 nM for the second.

Compared with `CCC(C(=O)Nc1ccc(-n2c(C)nc3ccccc3c2=O)cc1)c1ccccc1` (stereo not drawn) [Compound 19], `Cc1nc2ccccc2c(=O)n1-c1ccc(NS(=O)(=O)Cc2ccccc2)cc1` [Compound 72] is higher in EC50: < 1000 nM for the first, > 1000 nM for the second.

`Cc1cccc(CC(=O)Nc2ccc(-n3c(C)nc4ccccc4c3=O)cc2C)c1` [Compound 22] and `COc1cccc(CC(=O)Nc2ccc(-n3c(C)nc4ccccc4c3=O)cc2C)c1` [Compound 28] cannot be ordered by EC50: > 1000 nM for the first, > 1000 nM for the second.

`Cc1ccccc1CC(=O)Nc1ccc(-n2c(C)nc3ccccc3c2=O)cc1C` [Compound 23] and `Cc1cc(-n2c(C)nc3ccccc3c2=O)ccc1NC(=O)Cc1ccccc1F` [Compound 29] cannot be ordered by EC50: > 1000 nM for the first, > 1000 nM for the second.

Going from `Cc1cc(-n2c(C)nc3ccccc3c2=O)ccc1NC(=O)Cc1ccc(F)cc1` [Compound 24] to `Cc1cc(-n2c(C)nc3ccccc3c2=O)ccc1NC(=O)Cc1c(F)cccc1Cl` [Compound 32], the EC50 falls from > 1000 nM to < 1000 nM.

`Cc1nc2ccccc2c(=O)n1-c1ccc(NC(=O)Cc2c(F)cccc2Cl)cc1` [Compound 27] and `Cc1nc2cc(F)c(F)cc2c(=O)n1-c1ccc(NC(=O)Cc2ccccc2)cc1` [Compound 82] cannot be ordered by EC50: < 1000 nM for the first, < 1000 nM for the second.

First: Cc1cc(-n2c(C)nc3ccccc3c2=O)ccc1NC(=O)Cc1ccccc1Cl [Compound 30]
Second: COc1ccc(CC(=O)Nc2ccc(-n3c(C)nc4ccccc4c3=O)cc2C)c(Cl)c1 [Compound 34]
The EC50 of the first is higher: > 1000 nM for the first, < 1000 nM for the second.

Compared with `COc1cc(CC(=O)Nc2ccc(-n3c(C(F)(F)F)nc4ccccc4c3=O)cc2)cc(OC)c1OC` [Compound 40], `COc1cc(CC(=O)Nc2ccc(-n3c(C(F)F)nc4ccccc4c3=O)cc2)cc(OC)c1OC` [Compound 41] is higher in EC50: < 1000 nM for the first, > 1000 nM for the second. The first is the more potent here.

Compared with `COc1cc(CC(=O)Nc2ccc(-n3c(C)nc4cc(F)c(F)cc4c3=O)cc2)cc(OC)c1OC` [Compound 46], `COc1cc(CC(=O)Nc2ccc(-n3c(C)nc4cnccc4c3=O)cc2)cc(OC)c1OC` [Compound 49] is higher in EC50: < 100 nM for the first, > 1000 nM for the second.

`COc1cc(CC(=O)Nc2cnc(-n3c(C)nc4ccccc4c3=O)cn2)cc(OC)c1OC` [Compound 63] and `COc1cc(CC(=O)Nc2ccc(-n3c(CO)nc4ccccc4c3=O)cc2)cc(OC)c1OC` [Compound 71] cannot be ordered by EC50: > 1000 nM for the first, > 1000 nM for the second.

`Cc1nc2ccccc2c(=O)n1-c1ccc(NC(=O)Cc2ccc3c(c2)CCC3)cc1` [Compound 64] and `Cc1nc2cc(F)c(F)cc2c(=O)n1-c1ccc(NC(=O)Cc2ccc3c(c2)CCC3)cc1` [Compound 77] cannot be ordered by EC50: < 100 nM for the first, < 100 nM for the second.

First: COc1cc(CC(=O)Nc2ccc(-n3c(C)nc4sccc4c3=O)cc2)cc(OC)c1OC [Compound 69]
Second: Cc1cc(CC(=O)Nc2ccc(-n3c(C)nc4cc(F)c(F)cc4c3=O)cc2)cc(C)n1 [Compound 85]
The EC50 of the first is lower: < 1000 nM for the first, > 1000 nM for the second. The first is the more potent here.

`Cc1nc2ccccc2c(=O)n1-c1ccc(N(C)S(=O)(=O)Cc2ccccc2)cc1` [Compound 73] and `Cc1nc2cc(F)c(F)cc2c(=O)n1-c1ccc(NC(=O)Cc2cccnc2)cc1` [Compound 84] cannot be ordered by EC50: > 1000 nM for the first, > 1000 nM for the second.

`Cc1nc2cc(F)c(F)cc2c(=O)n1-c1ccc(NC(=O)Cc2ccc(C(F)(F)F)cc2)cc1` [Compound 74] and `Cc1nc2cc(F)c(F)cc2c(=O)n1-c1ccc(NC(=O)Cc2cc(C(F)(F)F)cc(C(F)(F)F)c2)cc1` [Compound 86] cannot be ordered by EC50: < 1000 nM for the first, < 100 nM for the second.

`Cc1cc(CC(=O)Nc2ccc(-n3c(C)nc4cc(F)c(F)cc4c3=O)cc2)cc(C)c1C` [Compound 75] and `Cc1nc2cc(F)c(F)cc2c(=O)n1-c1ccc(NC(=O)Cc2cc(F)c(F)c(F)c2)cc1` [Compound 76] cannot be ordered by EC50: < 100 nM for the first, < 1000 nM for the second.

With `Cc1nc2cc(F)c(F)cc2c(=O)n1-c1ccc(NC(=O)Cc2ccccn2)cc1` [Compound 83] the EC50 was > 1000 nM.

tested on: not listed separately; assay: Microsomal stability, mouse liver microsomes; format: in vitro ADME; conditions: Balb/c, pH 7.4, 0.42 mg microsomal protein per ml, 37° C., five time points over 40 minutes
Description: (§1) The objective of this study was to determine metabolic stability of 4 test articles and reference compounds in human and mouse liver microsomes at five time points over 40 minutes using HPLC-MS. Metabolic stability is defined as the percentage of parent compound lost over time in the presence of a metabolically active test system.
(§2) Microsomal incubations were carried out in 96-well plates in 5 aliquots of 30 μL each (one for each time point). Liver microsomal incubation medium comprised of phosphate buffer (100 mM, pH 7.4), MgCl2 (3.3 mM), NADPH (3 mM), glucose-6-phosphate (5.3 mM), glucose-6-phosphate dehydrogenase (0.67 units/ml) with 0.42 mg of liver microsomal protein per ml. In the control reactions, the NADPH-cofactor system was substituted with phosphate buffer. Test compounds (2 μM, final solvent concentration 1.6%) were incubated with microsomes at 37° C., shaking at 100 rpm. Five time points over 40 minutes were analyzed. The reactions were stopped by adding 5 volumes of acetonitrile with internal standard to incubation aliquots, followed by protein sedimentation by centrifuging at 5500 rpm for 5 minutes. Each reaction was performed in duplicates. Supernatants were analyzed using the HPLC system coupled with a tandem mass spectrometer.
(§3) The elimination constant (kel), half-life (t1,2), and intrinsic clearance (Clint) were determined in a plot of In(AUC) versus time, using linear regression analysis:^1

In order of falling microsomal CLint at 2 μM:
1. Cc1nc2cc(F)c(F)cc2c(=O)n1-c1ccc(NC(=O)Cc2ccccc2)cc1 [Compound 82]  15 µL/min/mg
2. Cc1nc2cc(F)c(F)cc2c(=O)n1-c1ccc(NC(=O)Cc2ccc(C(F)(F)F)cc2)cc1 [Compound 74]  7 µL/min/mg

tested on: not listed separately; assay: Microsomal stability, human liver microsomes; format: in vitro ADME; conditions: pH 7.4, 0.42 mg microsomal protein per ml, 37° C., five time points over 40 minutes
Description: as §1, §2, §3

In order of rising microsomal CLint at 2 μM:
1. Cc1nc2cc(F)c(F)cc2c(=O)n1-c1ccc(NC(=O)Cc2ccccc2)cc1 [Compound 82]  4 µL/min/mg
2. Cc1nc2cc(F)c(F)cc2c(=O)n1-c1ccc(NC(=O)Cc2ccc(C(F)(F)F)cc2)cc1 [Compound 74]  7 µL/min/mg
